Measured values from patent US20020026053A1, “Novel 3-(substituted) -2- indolinones compounds and use thereof as inhibitors of protein kinase activity” (priority 1997, published 2002).

Experiments:
EGFR = biological target: T1, EGFR (Homo sapiens, UniProt P00533); assay: Biochemical EGFR Assay; parameters: concentration or dose not given beside the values
T1 construct: endogenous in cells; host or cells: A431 cells (lysate, captured with SUMO1 anti-EGFR antibody)
In short: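 EGFR from A431 lysate was captured on anti-EGFR-coated wells and preincubated 30 min with compound (diluted 1:10 in TBS) at room temperature. After ATP/MnCl2 phosphorylation for 5 min, the reaction was stopped with EDTA. Phosphotyrosine was detected by ELISA (anti-phosphotyrosine, peroxidase conjugate, ABTS) at 410 nm.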

PDGF-R = PDGF-R Assay (cellular ELISA, U1242 cells); assay type: cell-based; parameters: concentration or dose not given beside the values
In short: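 U1242 cells seeded in 0.5% serum, serum-starved, then exposed to compound for 2 hr at 37°C before 5–10 min ligand stimulation and lysis in HNTG. Lysate captured on receptor-antibody-coated plates; phosphotyrosine detected with polyclonal anti-pTyr, goat anti-rabbit IgG and ABTS/H2O2, A410 (ref 630 nm), versus untreated cells.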

T1 sequence (P00533 25-1210): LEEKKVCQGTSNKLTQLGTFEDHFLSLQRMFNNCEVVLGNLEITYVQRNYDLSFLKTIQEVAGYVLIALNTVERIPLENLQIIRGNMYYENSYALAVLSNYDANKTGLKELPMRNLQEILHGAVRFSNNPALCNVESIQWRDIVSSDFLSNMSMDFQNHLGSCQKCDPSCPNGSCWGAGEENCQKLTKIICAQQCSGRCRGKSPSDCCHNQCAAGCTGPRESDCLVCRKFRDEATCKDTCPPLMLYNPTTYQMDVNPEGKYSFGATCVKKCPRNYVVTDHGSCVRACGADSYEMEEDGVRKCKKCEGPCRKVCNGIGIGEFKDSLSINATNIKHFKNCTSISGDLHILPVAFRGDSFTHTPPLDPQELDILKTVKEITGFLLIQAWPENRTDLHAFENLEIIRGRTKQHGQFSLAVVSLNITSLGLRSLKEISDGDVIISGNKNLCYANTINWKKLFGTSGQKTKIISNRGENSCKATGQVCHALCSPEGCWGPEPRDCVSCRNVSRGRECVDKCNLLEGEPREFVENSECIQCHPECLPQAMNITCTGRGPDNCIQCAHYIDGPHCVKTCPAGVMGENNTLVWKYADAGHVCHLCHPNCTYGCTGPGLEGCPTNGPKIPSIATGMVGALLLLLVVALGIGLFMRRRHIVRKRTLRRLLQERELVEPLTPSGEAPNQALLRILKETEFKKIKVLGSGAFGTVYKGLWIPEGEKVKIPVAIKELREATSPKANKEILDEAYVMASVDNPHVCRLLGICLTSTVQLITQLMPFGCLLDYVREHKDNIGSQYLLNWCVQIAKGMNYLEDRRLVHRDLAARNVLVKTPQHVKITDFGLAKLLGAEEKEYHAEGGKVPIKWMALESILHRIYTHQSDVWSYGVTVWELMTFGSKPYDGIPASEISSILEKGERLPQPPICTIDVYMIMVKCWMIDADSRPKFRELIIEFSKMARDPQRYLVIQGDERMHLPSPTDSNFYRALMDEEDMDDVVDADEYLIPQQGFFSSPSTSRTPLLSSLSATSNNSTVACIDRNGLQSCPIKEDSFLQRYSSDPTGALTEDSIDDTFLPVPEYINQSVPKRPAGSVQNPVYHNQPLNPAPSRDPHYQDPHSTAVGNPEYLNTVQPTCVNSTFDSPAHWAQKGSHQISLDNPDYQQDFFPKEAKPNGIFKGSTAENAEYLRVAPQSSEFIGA

SMILES | Biochem EGFR % Inhibition (P.167) (EGFR) [%] | PDGF Kinase % Inhibition (P.119) (PDGF-R) [%]
CCOc1ccccc1C=C1C(=O)Nc2c(Br)cc(Br)c(C)c21 [10717/H02] | 3.5 | 
Cc1c(Br)cc(Br)c2c1C(=Cc1cccs1)C(=O)N2 [10717/H03] | 25.7 | 
Cc1c(Br)cc(Br)c2c1C(=Cc1cccn1C)C(=O)N2 [10717/H04] | 6.8 | 
COc1ccc(C=C2C(=O)Nc3c(Br)cc(Br)c(C)c32)cc1OC [10720/H04] | −49.6 | 
Cc1c(Br)cc(Br)c2c1C(=Cc1ccccc1O)C(=O)N2 [10720/H05] | −29.0 | 
Cc1c(Br)cc(Br)c2c1C(=Cc1ccccc1)C(=O)N2 [10720/H06] | −52.4 | 
CSc1ccc(C=C2C(=O)Nc3c(Br)cc(Br)c(C)c32)s1 [10720/H07] | −49.8 | 
Cc1cc(O)cc(O)c1C=C1C(=O)Nc2c(Br)cc(Br)c(C)c21 [10720/H08] | −55.8 | 
CCOc1cc(C=C2C(=O)Nc3c(Br)cc(Br)c(C)c32)ccc1O [10720/H09] | −66.8 | 
COc1ccc(O)c(C=C2C(=O)Nc3c(Br)cc(Br)c(C)c32)c1 [10720/H10] | −62.8 | 
Cc1c(Br)cc(Br)c2c1C(=Cc1ncc[nH]1)C(=O)N2 [10720/H11] | −19.3 | 
Cc1c(Br)cc(Br)c2c1C(=Cc1nc3ccccc3n1C)C(=O)N2 [10721/H02] | 20.1 | 
Cc1c(Br)cc(Br)c2c1C(=Cc1nn(C)cc1Cl)C(=O)N2 [10721/H03] | 29.2 | 
Cc1cc(C=C2C(=O)Nc3c(Br)cc(Br)c(C)c32)sc1C [10721/H04] | −8.5 | 
Cc1c(Br)cc(Br)c2c1C(=Cc1cc3c([nH]1)CCCC3)C(=O)N2 [10721/H05] | −12.4 | 
Cc1c(Br)cc(Br)c2c1C(=Cc1cc([N+](=O)[O-])cc(CCl)c1O)C(=O)N2 [10721/H06] | 43.3 | 
Cc1c(Br)cc(Br)c2c1C(=Cc1ccc(Cl)s1)C(=O)N2 [10721/H07] | −20.5 | 
Cc1cc(C)c(C=C2C(=O)Nc3c(Br)cc(Br)c(C)c32)[nH]1 [10721/H08] | −6.8 | 
Cc1c(Br)cc(Br)c2c1C(=Cc1ccc(O)c(C(C)(C)C)c1)C(=O)N2 [10721/H09] | −10.4 | 
Cc1c(Br)cc(Br)c2c1C(=Cc1cc(Br)c(O)c(C(C)(C)C)c1)C(=O)N2 [10721/H10] | −3.9 | 
Cc1c(Br)cc(Br)c2c1C(=Cc1cc(C(C)(C)C)c(O)c(C(C)(C)C)c1)C(=O)N2 [10721/H11] | −21.3 | 

SMILES | Biochem EGFR % Inhibition (P.167) (EGFR) [%] | PDGF Kinase % Inhibition (P.119) (PDGF-R) [%]
Cc1c(Br)cc(Br)c2c1C(=Cc1cc([N+](=O)[O-])c(O)c(C(C)(C)C)c1)C(=O)N2 [10722/H02] | 24.8 | 19.2
Cc1c(Br)cc(Br)c2c1C(=Cc1c(O)cc(O)cc1O)C(=O)N2 [10722/H03] | 27.8 | 26.6
Cc1c(Br)cc(Br)c2c1C(=Cc1ccc([N+](=O)[O-])s1)C(=O)N2 [10722/H04] | 8.6 | −26.1
Cc1c(Br)cc(Br)c2c1C(=Cc1ccc(C(=O)O)cc1)C(=O)N2 [10722/H05] | 1.1 | 0.9
Cc1c(Br)cc(Br)c2c1C(=Cc1ccc(F)cc1F)C(=O)N2 [10722/H06] | −2.0 | 18.6
Cc1cc(C=C2C(=O)Nc3c(Br)cc(Br)c(C)c32)cc(C)c1O [10722/H07] | −24.8 | −16.9
Cc1c(Br)cc(Br)c2c1C(=Cc1cc(Cl)c(O)c(C(C)(C)C)c1)C(=O)N2 [10722/H08] | −5.7 | −15.2
Cc1c(Br)cc(Br)c2c1C(=Cc1csc([N+](=O)[O-])c1)C(=O)N2 [10722/H09] | −7.4 | 17.5
CCCCN(CCCC)c1ccc(C=C2C(=O)Nc3c(Br)cc(Br)c(C)c32)cc1 [10722/H10] | −11.2 | 7.2
Cc1c(Br)cc(Br)c2c1C(=Cc1ccc(C(F)(F)F)cc1)C(=O)N2 [10722/H11] | −16.3 | 15.7
Cc1c(Br)cc(Br)c2c1C(=Cc1ccc(O)c(O)c1O)C(=O)N2 [10723/H02] | 72.8 | 20.7
COc1cccc(C=C2C(=O)Nc3c(Br)cc(Br)c(C)c32)c1O [10723/H03] | 6.3 | −30.6
Cc1c(Br)cc(Br)c2c1C(=Cc1cc(O)c(O)c(Br)c1)C(=O)N2 [10723/H04] | 7.1 | 53.3
CC(=O)Oc1ccc(C=C2C(=O)Nc3c(Br)cc(Br)c(C)c32)cc1OC(C)=O [10723/H05] | −17.3 | −12.6
Cc1cc(C=C2C(=O)Nc3c(Br)cc(Br)c(C)c32)ccc1O [10723/H06] | −11.8 | −17.4
Cc1c(Br)cc(Br)c2c1C(=Cc1ccccc1Br)C(=O)N2 [10723/H07] | −11.3 | −20.9
Cc1c(Br)cc(Br)c2c1C(=Cc1ccc(O)cc1O)C(=O)N2 [10723/H08] | 69.9 | 4.1
COc1ccc(C=C2C(=O)Nc3c(Br)cc(Br)c(C)c32)c(O)c1 [10723/H09] | −2.6 | 15.9
Cc1c(Br)cc(Br)c2c1C(=Cc1cccc(Br)c1)C(=O)N2 [10723/H10] | −38.1 | −22.3
Cc1c(Br)cc(Br)c2c1C(=Cc1cc(C(C)(C)C)cc(C(C)(C)C)c1O)C(=O)N2 [10723/H11] | −20.7 | 29.7
Cc1c(Br)cc(Br)c2c1C(=Cc1ccc(N(C)C)c3ccccc13)C(=O)N2 [10724/H02] | 17.6 | 2.2

SMILES | Biochem EGFR % Inhibition (P.167) (EGFR) [%] | PDGF Kinase % Inhibition (P.119) (PDGF-R) [%]
Cc1c(Br)cc(Br)c2c1C(=Cc1ccc(O)c([N+](=O)[O-])c1)C(=O)N2 [10724/H03] | 0.3 | −7.6
Cc1c(Br)cc(Br)c2c1C(=Cc1ccc([N+](=O)[O-])c(O)c1)C(=O)N2 [10724/H04] | 14.0 | −13.1
Cc1c(Br)cc(Br)c2c1C(=Cc1cc3c4c(c1O)CCCN4CCC3)C(=O)N2 [10724/H05] | −1.3 | −19.4
Cc1c(Br)cc(Br)c2c1C(=Cc1cc(C(C)C)c(O)c(C(C)C)c1)C(=O)N2 [10724/H06] | −8.2 | −20.8
Cc1c(Br)cc(Br)c2c1C(=Cc1cc3ccccc3o1)C(=O)N2 [10724/H07] | −19.3 | −39.6
COc1cc(O)c(C=C2C(=O)Nc3c(Br)cc(Br)c(C)c32)c(OC)c1 [10724/H08] | −19.7 | −9.0
Cc1c(Br)cc(Br)c2c1C(=Cc1cccn1-c1ccc(Cl)cc1)C(=O)N2 [10724/H09] | −33.5 | −13.1
CCc1ccc(C=C2C(=O)Nc3c(Br)cc(Br)c(C)c32)o1 [10724/H10] | −25.5 | −2.7
Cc1c(Br)cc(Br)c2c1C(=Cc1sc3scc(C)c3c1C)C(=O)N2 [10724/H11] | −12.8 | −31.2
Cc1c(Br)cc(Br)c2c1C(=Cc1sccc1Br)C(=O)N2 [10725/H02] | −23.5 | −19.9
COc1ccc(Br)c(C=C2C(=O)Nc3c(Br)cc(Br)c(C)c32)c1O [10725/H03] | −16.5 | −12.8
Cc1ccc(C=C2C(=O)Nc3c(Br)cc(Br)c(C)c32)o1 [10725/H04] | 17.2 | −4.1
Cc1cc(C=C2C(=O)Nc3c(Br)cc(Br)c(C)c32)[nH]n1 [10725/H05] | −30.2 | 14.6
COc1cc(C)cc(O)c1C=C1C(=O)Nc2c(Br)cc(Br)c(C)c21 [10725/H06] | 0.3 | 6.9
Cc1c(Br)cc(Br)c2c1C(=Cc1ccc(N3CCN(C=O)CC3)cc1)C(=O)N2 [10725/H07] | −13.3 | 2.6
Cc1c(Br)cc(Br)c2c1C(=Cc1ccc(N3CCOCC3)cc1)C(=O)N2 [10725/H08] | −3.7 | 13.6
COC(=O)Cc1c(Cl)[nH]c(C=C2C(=O)Nc3c(Br)cc(Br)c(C)c32)c1C(=O)OC [10725/H09] | −28.4 | 9.3
Cc1c(Br)cc(Br)c2c1C(=Cc1c(Br)cnn1-c1ccc(Cl)cc1)C(=O)N2 [10725/H10] | 9.1 | 12.2
Cc1c(Br)cc(Br)c2c1C(=Cc1c[nH]cn1)C(=O)N2 [10725/H11] | 0.5 | 16.5
